Legend:
[1] = test system: Arabidopsis thaliana seedlings; test: Auxin activity, root growth bioassay in A. thaliana seedlings; type: in vivo; conditions: 4-days old seedlings, MS-Agar; formulation 0.1, 1, 10, 25% v/v; IAA 1, 10 and 100 nM
Description: Auxin Activity • Auxin activity was determined by measuring the growth of the main root in seedlings of Arabidopsis thaliana, and the amount of side roots to estimate the root density according to Iglesias et al. (2014). Briefly, 4-days old A. thaliana seedlings were grown in a MS-Agar medium supplemented with different concentrations of the formulation of Example 5 (0.1, 1, 10, 25% v/v). As reference, different concentrations of indole-acetic acid (IAA) were used (1, 10 and 100 nM). Three independent assays were carried out, with 8 seedlings per treatment (N=24).

[2] = test system: cucumber cotyledons (Cucumis sativus var. Runner); test: Cytokinin activity, cucumber cotyledons greening bioassay (chlorophyll content); conditions: incubated 20 h, then light 16 hs; SPAD detector and acetone extraction
Description: Cytokinin Activity • Cytokinin activity was determined by quantifying the chlorophyll content in cucumber cotyledons (Fletcher et al., 1982). Briefly, cucumber (Cucumis sativus var. Runner) seeds were germinated and grown in darkness for 7 days. Then, the cotyledons were cut and incubated for 20 h under different concentrations of the formulation of Example 5 (0.1, 1, 10 and 100% v/v). As a positive control, different concentrations of a cytokinin analog, kinetin, were used (0.01, 0.1, 1 and 10 μg/ml). Then the cotyledons were exposed to light for 16 hs, and the chlorophyll content was determined by two methods: by means of a manual SPAD detector (Chlorophyll meter SPAD-502, Konica Minolta), and by extracting the chlorophyll with acetone (Arnon 1949). Three independent assays were carried out, with 8 cotyledons per treatment (N=24).

Row | SMILES | growth of the main root [1] | number of side roots [1] | greening of cotyledons (chlorophyll content) [2]
1 | O=C(O)Cc1c[nH]c2ccccc12 [IAA, indole-acetic acid] | dose-dependent shortening of the main root | increase in the number of side roots | –
2 | c1coc(CNc2ncnc3[nH]cnc23)c1 [kinetin] | – | – | stimulated the greening of the etiolated cotyledons depending on the dose

Reference: patent publication US20240138417A1, “TRICHODERMA-BASED BIOENHANCER FOR FOLIAR APPLICATION IN PLANTS” (YPF TECNOLOGÍA S.A., priority 2022, published 2024)
